From PMC10482274, “Probing the substrate binding modes and catalytic mechanisms of BLEG-1, a promiscuous B3 metallo-β-lactamase with glyoxalase II properties” (PLOS ONE, 2023)

Molecular target: T1, BLEG-1 (B3 metallo-β-lactamase) (Shouchella lehensis, UniProt A0A060M4R1)
T1 construct: gene BleG1_2478; wild-type recombinant BLEG-1 (26 kDa), purified by Ni-NTA
Experiment: circular dichroism titration ([…] nm, non-linear regression); hydrolysis assay at […] nm with the purified enzyme
Assay type: binding

T1 sequence (A0A060M4R1 entry or part of it): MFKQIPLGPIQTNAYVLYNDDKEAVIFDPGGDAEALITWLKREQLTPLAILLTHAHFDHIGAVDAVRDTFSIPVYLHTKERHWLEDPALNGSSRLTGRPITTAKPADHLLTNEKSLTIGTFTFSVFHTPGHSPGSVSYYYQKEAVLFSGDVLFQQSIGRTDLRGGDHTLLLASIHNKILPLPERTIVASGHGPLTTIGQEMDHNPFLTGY

## CC1(C)S[C@@H]2[C@H](NC(=O)[C@H](N)c3ccccc3)C(=O)N2[C@H]1C(=O)O [ampicillin]
  Kd: 1510 nM
